Experimental data taken from paper PMC6143291 (The Journal of organic chemistry, 2017).
In brackets after ≈: the same amount, converted by molar mass.

How the values were obtained:
Mtb Ag85C = Mtb Ag85C (Mycobacterium tuberculosis, UniProt P9WQN9); experiment: Fluorometric resorufin butyrate assay, apparent IC50 after 15 min incubation; type: biochemical
Mtb H37Rv = experiment: Microplate Alamar blue assay; type: cell-based, Mycobacterium tuberculosis; conditions: MABA, 2-fold serial dilution, read on day seven

Chain of Mtb Ag85C (P9WQN9 46-340 limits assumed): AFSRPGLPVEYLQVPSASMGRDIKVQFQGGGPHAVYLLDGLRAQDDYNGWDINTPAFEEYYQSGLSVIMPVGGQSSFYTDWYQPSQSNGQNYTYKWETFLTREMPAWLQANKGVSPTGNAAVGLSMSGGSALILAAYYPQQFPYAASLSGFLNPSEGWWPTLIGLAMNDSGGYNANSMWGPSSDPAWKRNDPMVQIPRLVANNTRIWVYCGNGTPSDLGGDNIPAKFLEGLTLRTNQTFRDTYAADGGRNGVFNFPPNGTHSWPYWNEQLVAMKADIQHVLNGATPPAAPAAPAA

SMILES: O=c1c2ccccc2[se]n1-c1ccccc1 [1a, 2-Phenylbenzo[d][1,2]selenazol-3(2H)-one, reference compound]
- IC50 (Mtb Ag85C): 5.12 µM

SMILES: COc1ccc(Cn2[se]c3ccccc3c2=O)cc1 [1b, 2-(4-Methoxybenzyl)benzo[d][1,2]selenazol-3(2H)-one]
- IC50 (Mtb Ag85C): 0.54 µM

SMILES: COc1ccccc1Cn1[se]c2ccccc2c1=O [1c, 2-(2-Methoxybenzyl)benzo[d][1,2]selenazol-3(2H)-one]
- IC50 (Mtb Ag85C): 28.6 µM

SMILES: COc1ccc(-n2[se]c3ccccc3c2=O)cc1 [1d, 2-(4-Methoxyphenyl)benzo[d][1,2]selenazol-3(2H)-one]
- IC50 (Mtb Ag85C): 1.2 µM

SMILES: O=c1c2ccccc2[se]n1Cc1ccccc1 [1e, 2-Benzylbenzo[d][1,2]selenazol-3(2H)-one]
- IC50 (Mtb Ag85C): 6.5 µM

SMILES: O=c1c2ccccc2[se]n1CC1CCCCC1 [1g, 2-(Cyclohexylmethyl)benzo[d][1,2]selenazol-3(2H)-one]
- IC50 (Mtb Ag85C): 5.3 µM

SMILES: O=c1c2ccccc2[se]n1-c1ccc(F)cc1 [1h, 2-(4-Fluorophenyl)benzo[d][1,2]selenazol-3(2H)-one]
- IC50 (Mtb Ag85C): 0.72 µM

SMILES: O=c1c2ccccc2[se]n1-c1ccccc1F [1i, 2-(2-Fluorophenyl)benzo[d][1,2]selenazol-3(2H)-one]
- IC50 (Mtb Ag85C): 1 µM

SMILES: [N-]=[N+]=Nc1ccc(-n2[se]c3ccccc3c2=O)cc1 [1j, 2-(4-Azidophenyl)benzo[d][1,2]selenazol-3(2H)-one]
- IC50 (Mtb Ag85C): 1.1 µM

SMILES: CC(C)(C)n1[se]c2ccccc2c1=O [1k, 2-(tert-Butyl)benzo[d][1,2]selenazol-3(2H)-one]
- IC50 (Mtb Ag85C): 1.5 µM

SMILES: O=c1c2ccccc2[se]n1C12CC3CC(CC(C3)C1)C2 [1l, 2-((3R,5S)-Adamantan-1-yl)benzo[d][1,2]-selenazol-3(2H)-one]
- MIC (Mtb H37Rv): 50 mg/L (≈ 150 µM)

SMILES: O=c1c2ccccc2[se]n1C1CCCC1 [1m, 2-Cyclopentylbenzo[d][1,2]selenazol-3(2H)-one]
- IC50 (Mtb Ag85C): 4.1 µM

SMILES: O=c1c2ccccc2[se]n1C1CCCCC1 [1n, 2-Cyclohexylbenzo[d][1,2]selenazol-3(2H)-one]
- IC50 (Mtb Ag85C): 3.7 µM

SMILES: [N-]=[N+]=Nc1ccc(NC(=O)c2ccccc2[Se]C#Cc2ccccc2)cc1 [compound 8, N-(4-Azidophenyl)-2-((phenylethynyl)selanyl)-benzamide]
- IC50 (Mtb Ag85C): > 100 µM

SMILES: O=C(CCCCC1SC[C@@H]2NC(=O)N[C@H]12)NCCOCCOCCOCCNC(=O)CCC(=O)N1Cc2ccccc2-c2nnn(-c3ccc(-n4[se]c5ccccc5c4=O)cc3)c2-c2ccccc21 (stereo partly drawn) [compound 10, N-(13,16-Dioxo-16-(3-(4-(3-oxobenzo[d][1,2]-selenazol-2(3H)-yl)phenyl)-3,9-dihydro-8H-dibenzo[b,f][1,2,3]-triazolo[4,5-d]azocin-8-yl)-3,6,9-trioxa-12-azahexadecyl)-5-((3aS,6aR)-2-oxohexahydro-1H-thieno[3,4-d]imidazol-4-yl)-pentanamide]
- IC50 (Mtb Ag85C): 2.02 µM
